Assays:
[1] = target: T1, human PPARα ligand binding domain (GST-PPARα-LBD) (Homo sapiens, UniProt Q07869); assay: in vitro PPARα/SRC-1 binding assay (GST-PPARα-LBD / SRC-Luc complex captured on glutathione-sepharose beads, luciferase readout)
T1 construct: made in house; host or cells: E. coli BL21(DE3)pLysS
T1 sequence (Q07869 164-468): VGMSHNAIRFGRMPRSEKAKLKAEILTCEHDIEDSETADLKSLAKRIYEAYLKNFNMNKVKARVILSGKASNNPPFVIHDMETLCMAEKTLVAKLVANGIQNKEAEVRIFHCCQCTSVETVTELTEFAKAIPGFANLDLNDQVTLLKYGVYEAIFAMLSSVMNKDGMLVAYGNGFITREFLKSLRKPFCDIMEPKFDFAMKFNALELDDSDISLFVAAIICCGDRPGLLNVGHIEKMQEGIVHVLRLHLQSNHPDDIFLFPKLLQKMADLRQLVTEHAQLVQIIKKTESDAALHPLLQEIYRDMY
T1 sequence (Q15788 631-763 partner limits assumed): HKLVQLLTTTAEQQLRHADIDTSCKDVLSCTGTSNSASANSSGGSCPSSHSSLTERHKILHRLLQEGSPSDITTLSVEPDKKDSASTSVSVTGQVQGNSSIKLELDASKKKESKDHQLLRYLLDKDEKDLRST
Excerpt: For this example, the peroxisome proliferator-activated receptor-α (PPARα) nuclear receptor was chosen. The PPAR LBD was expressed in bacteria as a GST fusion protein (GST-PPARα-LBD) for use in the assay (FIG. 1). Also chosen was a known PPARα coactivator, SRC-1 (Takeshita Endocrinology 137:3594-3597 (1996)). SRC-1 was expressed as a GST fusion protein also containing a firefly luciferase moiety (GST-SRC-Luc). The GST moiety was subsequently cleaved away from purified GST-SRC-1-Luc protein to yield a purified SRC-Luc protein (FIG. 1). A known PPARα ligand, GW2331, was also chosen for establishing the assay.
The GST-PPARα-LBD expression plasmid was prepared as follows: the human PPARα ligand binding domain including the hinge region (amino acids 164-468, accession #S74349) was PCR amplified from HepG2 first-strand cDNA using synthetic primers (SEQ ID:1 and SEQ ID:2) and native Taq polymerase. The primers were tagged with BamHI (5′) and NotI (3′) restriction sites to facilitate cloning. PCR fragments were cloned directly into pGEM®-T (Promega Corp), screened by diagnostic restriction digests, and confirmed by DNA sequence analysis. A combination of clones was used to generate a complete, error-free clone. The PPARα hinge/ligand binding domain clone was then transferred into pGEX-4T-3 (Amersham Pharmacia Biotech) as a BamH I/Not I fragment to create an in-frame fusion with GST. […]

[2] = target: T2, human PPARβ ligand binding domain (GST-PPARβ-LBD) (Homo sapiens, UniProt Q03181); assay: in vitro PPARβ/SRC-1 binding assay (GST-PPARβ-LBD / SRC-Luc complex captured on glutathione-sepharose beads, luciferase readout); conditions: each ligand at final 5 μM; FIG. 3
T2 construct: made in house
T2 sequence (Q03181 136-441): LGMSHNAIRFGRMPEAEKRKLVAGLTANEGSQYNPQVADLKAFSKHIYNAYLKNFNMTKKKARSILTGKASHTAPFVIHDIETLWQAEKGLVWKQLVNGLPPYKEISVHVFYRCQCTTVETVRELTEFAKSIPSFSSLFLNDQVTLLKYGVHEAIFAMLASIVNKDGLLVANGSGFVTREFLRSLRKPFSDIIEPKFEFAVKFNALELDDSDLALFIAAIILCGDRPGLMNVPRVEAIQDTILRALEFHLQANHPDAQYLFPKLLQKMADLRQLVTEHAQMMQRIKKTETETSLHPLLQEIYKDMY
T2 sequence (Q15788 631-763 partner limits assumed): T1 sequence (Q15788 631-763 partner limits assumed)

binding of ligand by GST-PPARα-LBD (luciferase activity of the isolated complex with SRC-Luc) ([1]; each ligand at final 5 μM, FIG. 3): efficiently | amount of GST-PPARα-LBD/GW2331 ligand/SRC-Luc complex (luciferase activity, light units) as the ligand concentration was increased ([1]; ligand at 0.001, 0.01, 0.1, 1.0, 10.0 and 100.0 μM, 2 h at 4° C., FIG. 2): also increased | binding of ligand by GST-PPARβ-LBD (luciferase activity of the isolated complex with SRC-Luc) [2]: roughly equal efficiency
SMILES: CCCCCCCN(CCc1ccc(OC(C)(CC)C(=O)O)cc1)C(=O)Nc1ccc(F)cc1F (stereo not drawn) [GW2331, spec/2-(4-[2-(3[2,4-Difluorophenyl]-1-heptylureido)ethyl]phenoxy)-2-methylbutyric acid]

From US20030039980A1, “Assays for determination of functional binding of compounds to receptors” (priority 2000, published 2003)
